Each molecule was assayed against Programmed cell death 1 ligand 1 (Homo sapiens, UniProt Q9NZQ7) (assay: Enzyme-Linked Immunosorbent Assay—ELISA: 96 Well plates were coated with […] of human PD-L1 (obtained from R&D) in PBS overnight at 4° C. The wells were then blocked with 2% BSA in PBS (W/V) with 0.05% TWEEN-20 for 1 hour at 37° C. The plates were washed 3 times with PBS/0.05% TWEEN-20 and the compounds were serial diluted (1:5) in dilution medium and added to the ELISA plates. Human PD-1 and biotin 0.31 μg/mL (ACRO Biosystems) were added and incubated for 1 hour at 37° C. then washed 3 times with PBS/0.05% TWEEN-20. A second block was performed with 2% BSA in PBS (W/V)/0.05% TWEEN-20 for 10 min at 37° C. and the plates were washed 3 times with PBS/0.05% TWEEN-20. Streptavidin-HRP was added for 1 hour at 37° C. then the plates were washed 3 times with PBS/0.05% TWEEN-20. TMB substrate was added and reacted for 20 min at 37° C. A stop solution (2 N aqueous H2SO4) was added. The absorbance was read at 450 nm using a micro-plate spectrophotometer.).
Programmed cell death 1 ligand 1, sequence (Q9NZQ7 whole entry): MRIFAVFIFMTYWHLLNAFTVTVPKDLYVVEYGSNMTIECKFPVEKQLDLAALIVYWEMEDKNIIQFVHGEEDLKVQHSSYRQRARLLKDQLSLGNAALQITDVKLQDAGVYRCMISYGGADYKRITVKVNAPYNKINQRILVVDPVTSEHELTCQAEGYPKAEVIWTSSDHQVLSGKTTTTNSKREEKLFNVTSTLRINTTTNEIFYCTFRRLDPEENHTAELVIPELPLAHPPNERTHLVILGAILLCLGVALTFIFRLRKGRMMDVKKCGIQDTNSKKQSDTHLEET

Structure (SMILES)	IC50
COc1cc(-c2cccc(-c3cccc(NC(=O)c4cncn(C)c4=O)c3C)c2Cl)cc(F)c1CN[C@@H]1CNC(=O)C1	< 0.01 µM
COc1cc(-c2cccc(-c3cccc(Nc4nccc5nccnc45)c3C)c2Cl)cc(F)c1CN[C@@H]1CCOC[C@@H]1O	< 0.01 µM
COc1cc(-c2cccc(-c3cccc(NC(=O)c4ccc(OCC(=O)O)cn4)c3C)c2C)cc(F)c1CN	< 0.01 µM
COc1cc(-c2cccc(-c3cccc(NC(=O)c4cn(C)c(=O)n(C)c4=O)c3Cl)c2Cl)cc(F)c1CN[C@@H]1CNC(=O)C1	< 0.01 µM
COc1cc(-c2cccc(-c3cccc(NC(=O)c4cnc(C(N)=O)cn4)c3C)c2C)cc(F)c1CN	< 0.01 µM
COc1cc(-c2cccc(-c3cccc(NC(=O)c4cn(C)c(=O)n(C)c4=O)c3C)c2C)cc(F)c1CN	< 0.01 µM
COc1cc(-c2cccc(-c3cccc(NC(=O)c4ccc(C(N)=O)cn4)c3C)c2C)cc(F)c1CN	< 0.01 µM
COc1cc(-c2cccc(-c3cccc(NC(=O)c4cn(C)c(=O)n(C)c4=O)c3C)c2C)cc(F)c1CN(C)CCO	< 0.01 µM
COc1cc(-c2cccc(-c3cccc(NC(=O)c4cn(C)c(=O)n(C)c4=O)c3F)c2Cl)cc(F)c1CNCC1CCC(=O)N1 (stereo not given)	< 0.01 µM
COc1cc(-c2cccc(-c3cccc(NC(=O)c4cn(C)c(=O)n(C)c4=O)c3Cl)c2Cl)cc(F)c1CN[C@@H]1CCOC[C@@H]1O	< 0.01 µM
